We go through four molecules from paper PMC12383012 (Antioxidants, 2025).

For data set [1] the following is noted: radical scavenging, parent acid; read-out: AA EC50; cited from earlier work.
Data set [2] is described as follows: Free-radical-scavenging assay (DPPH method). To be noted: for % AA (radical-scavenging activity): compound concentration 100 μM. As for the experimental part:
The percentage of radical-scavenging activity (%AA, antioxidant capacity) of the RIV hybrids was first determined by the 2,2-diphenyl-1-picrylhydrazyl (DPPH) method using a compound concentration of 100 μM. […] Each calibration point was kept 30 min in darkness, and afterwards, the absorbance was measured at 517 nm. The corresponding antioxidant activity (%AA) was calculated using the equation %AA=ADPPH−Aligand/ADPPH×100. From the plot of %AA versus ligand concentration, EC50 was determined. Three independent experiments were performed, and a statistical analysis was conducted by a one-way analysis of variance (ANOVA) with the significance threshold set at p < 0.05.
The RIV hybrids were screened for their radical-scavenging activity by using the DPPH method. These assays were conducted in two stages: first, preliminary analyses were performed for all the compounds to evaluate the percentage of radical-scavenging activity by using a compound concentration of 100 μM. Afterwards, the compounds showing more than 50% antioxidant activity (AA), under those conditions, were further assessed to evaluate the respective EC50 values.
(In general: DPPH is a stable violet radical that fades when it is reduced.)

Data set [3] concerns the target T1, equine butyrylcholinesterase (eqBChE) (Equus caballus, UniProt P81908).
T1 construct: purchased
The experiment in a line: Butyrylcholinesterase inhibition (adapted Ellman's method). The class given is biochemical. The settings on record: for SI (selectivity index): SI = IC50 (AChE)/IC50 (BChE); for IC50: eqBChE, read-out: BChE Inhib IC50. As to the method: (§1) The enzyme inhibition of electric eel acetylcholinesterase (eeAChE) and equine butyrylcholinesterase (eqBChE) was performed according to an adaptation of Elmman’s method. Stock solutions of 1 mg of each compound in 1 mL MeOH were prepared, and adequate dilutions were further made for each ligand. A control measurement (5 replicates without a ligand) and a calibration curve of 5 points with 3 replicates per point were conducted. Each solution included fixed volumes of 4-(2-hydroxyethyl)-1-piperazine-ethanesulfonic acid (HEPES) and cholinesterase (eeAChE or eqBChE), with different volumes of ligand solution. A blank solution containing HEPES and MeOH was also prepared at the same time. After 15 min of reaction, […] (AChI) or butyrylcholine iodide (BChI) and 5,5’-dithiobis-(2-nitrobenzoic acid) (DTNB) were added to both solutions contained in spectrophotometer cuvettes, and the absorbance at 405 nm was recorded for 5 min (time interval = 1 s, slid width = 1 nm). The slope for each calibration point (absorbance versus reaction time) was determined, and the percent inhibition was calculated by using the equation: %Inhibition=100−(vi/v0×100). where vi is the reaction rate (slope) for each point of the calibration with the ligand, and v0 is the initial reaction rate (slope) for the control point (without ligand). Finally, the five-point linear regression (10–50 µL of ligand solution) corresponding to the percentage of enzyme inhibition vs. the compound concentration allowed for the determination of the half maximal inhibitory concentration (IC50, µM) (compound concentration for which enzyme activity is reduced to half). Experiments were performed twice for each ligand. Statistical analysis was performed by a one-way analysis of variance (ANOVA) with a significance threshold set at p < 0.05.

The subject of data set [4] is SH-SY5Y human neuroblastoma cell line. The experiment in a line: Protection against iron/ascorbate-induced toxicity (MTT). The settings on record: 1 h pre-treatment at highest nontoxic concentration, then 24 h with Fe/Asc. The class given is cell-based. As for the experimental part: (§2) Cell viability was assessed using the colorimetric MTT (3-(4,5-dimethylthiazol-2-yl)-2,5-diphenyltetrazolium bromide) assay, as previously described.
(§3) The compounds’ solutions (4AY1-6, 4BY1-3, and 4CY1) were prepared in DMSO to create stock solutions at a concentration of 25 mM, which were then stored at −20 °C. A concentration range from 0.5 µM to 20 µM was screened to identify the highest non-toxic dose. The SH-SY5Y human neuroblastoma cell line (ATCC-CRL-2266) was grown in Dulbecco’s modified Eagle’s medium (DMEM) (Thermo Fisher Scientific-Gibco, Waltham, MA, USA) supplemented with 10% heat-inactivated fetal calf serum, 50 U/mL penicillin, and 50 µg/mL streptomycin at 37 °C in a 5% CO2 atmosphere. The cells were seeded at a density of 0.1 × 10^6 cells/mL (when 48-well plates were used) or 0.15 × 10^6 cells/mL (when 24-well plates were used) one day before the experiment commenced. Following the seeding, the cells were treated with the selected concentrations of compounds for 24 h. After treatment, the cells were washed with PBS and incubated with 150 µL (in 48-well plates) or 200 µL (in 24-well plates) of MTT (0.5 mg/mL) for 2 h at 37 °C with 5% CO2. During this incubation, cellular dehydrogenases converted MTT into formazan crystals, which were subsequently dissolved in 150 µL (in 48-well plates) or 200 µL (in 24-well plates) of 0.04 M HCl/isopropanol, and the absorbance was measured at 570 nm.
To evaluate the compounds’ protective effects against toxicity induced by Aβ1–42 or iron/ascorbate, the cells were pre-treated with each compound for one hour before adding Aβ1–42 or iron/ascorbate, followed by an additional 24-h incubation. Aβ1–42 (Bachem, Torrance, CA, USA) was prepared in sterile water to create a 443 µM stock solution and was added to the cells at a final concentration of 1 µM. Ferrous sulfate and L-ascorbic acid (Sigma Chemical Co., St. Louis, MO, USA) were introduced into the medium at final concentrations of 5 mM and 2.5 mM, respectively. […]

Another data set addresses T2, Aβ1–42 (Homo sapiens, UniProt P05067).
T2 construct: the Aβ1–42 peptide (Shanghai Royobiotech Co., Ltd., Shanghai, China); purchased Shanghai Royobiotech Co., Ltd
The experiment in a line: Inhibition of Aβ1–42 self-aggregation (ThT fluorescence). The class given is biochemical. To be noted: read-out: % Aβ42 Self-Agg Inhib. As to the method:
Firstly, the Aβ1–42 peptide (Shanghai Royobiotech Co., Ltd., Shanghai, China) was treated with 1,1,1,3,3,3-hexafluoropropan-2-ol (HFIP) and then dissolved in a CH3CN/Na2CO3 (300 μM)/NaOH (250 μM) (48.3:48.3:4.3, v/v/v) mixture in order to obtain a stable stock solution (500 μM).
Solutions of 1 mg of the assayed compounds in 2 mL of 1:1 (v/v) DMSO/MeOH (0.5 mg/mL) medium were prepared and then properly diluted with phosphate buffer (0.215 M, pH 8.0) to obtain a 120 μM final concentration. The Aβ1–42 self-aggregation inhibition assays were made based on a reported method, involving the fluorescence emission of thioflavin T (ThT). So, Aβ1–42 (40 μM) was incubated at 37 °C for 24 h in phosphate buffer and in the presence or absence of each ligand (40 μM for all compounds but 4AY4 and 4CY1, for which 20 μM was used). Then, […] 5 μM ThT in 50 mM glycine-NaOH (pH 8.5) buffer were added to each sample before transferring the samples to a 96-well microplate. Blank samples were also prepared without Aβ1–42. The ThT fluorescence was measured (446 and 485 nm excitation and emission wavelengths, respectively), and the percent of self-aggregation inhibition was determined by the equation:I% = 100 − (IFi/IF0 × 100) where IFi and IF0 are the fluorescence intensities, in the presence and the absence of the assayed compound, subtracted from the fluorescence intensities due to the respective blanks. The calculated values were obtained as the mean ± SEM of four different experiments conducted in duplicate. Statistical analysis was performed by a one-way analysis of variance (ANOVA) with a significance threshold set at p < 0.05.

The test system of data set [5] is SH-SY5Y human neuroblastoma cell line. The experiment in a line: Cell viability dose-response screening (MTT). The class given is cell-based. The settings on record: 24 h. As for the experimental part: as §2, §3
Data set [6] concerns the target T3, electric eel acetylcholinesterase (eeAChE) (Electrophorus electricus, UniProt O42275).
T3 construct: purchased
The experiment in a line: Acetylcholinesterase inhibition (adapted Ellman's method). The class given is biochemical. To be noted: read-out: AChE Inhib IC50. As for the experimental part:
as §1

The structures appear in SMILES notation. “Also recorded” adds a separate entry of the source. Where two headings read alike, the source gives them in different places.

Broadly, the EC50 is the midpoint of the concentration-response curve. One may read the IC50 as the point on the concentration scale where inhibition reaches its midpoint.

T1 sequence (P81908 whole entry): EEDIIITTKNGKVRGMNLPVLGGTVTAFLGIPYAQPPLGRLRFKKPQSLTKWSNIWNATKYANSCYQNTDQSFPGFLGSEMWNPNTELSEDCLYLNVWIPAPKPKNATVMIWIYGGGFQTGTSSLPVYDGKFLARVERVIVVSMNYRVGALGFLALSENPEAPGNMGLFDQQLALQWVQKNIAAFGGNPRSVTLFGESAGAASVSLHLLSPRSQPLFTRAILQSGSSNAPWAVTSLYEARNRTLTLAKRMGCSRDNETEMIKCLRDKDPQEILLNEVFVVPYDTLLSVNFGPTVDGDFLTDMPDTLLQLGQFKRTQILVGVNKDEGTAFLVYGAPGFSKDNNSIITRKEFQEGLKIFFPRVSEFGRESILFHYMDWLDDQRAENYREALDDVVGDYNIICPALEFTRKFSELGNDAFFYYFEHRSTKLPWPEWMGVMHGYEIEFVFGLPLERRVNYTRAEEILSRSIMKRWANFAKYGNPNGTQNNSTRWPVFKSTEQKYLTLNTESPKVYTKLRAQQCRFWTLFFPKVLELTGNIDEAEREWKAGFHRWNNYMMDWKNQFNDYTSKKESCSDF
T3 sequence (O42275 24-633): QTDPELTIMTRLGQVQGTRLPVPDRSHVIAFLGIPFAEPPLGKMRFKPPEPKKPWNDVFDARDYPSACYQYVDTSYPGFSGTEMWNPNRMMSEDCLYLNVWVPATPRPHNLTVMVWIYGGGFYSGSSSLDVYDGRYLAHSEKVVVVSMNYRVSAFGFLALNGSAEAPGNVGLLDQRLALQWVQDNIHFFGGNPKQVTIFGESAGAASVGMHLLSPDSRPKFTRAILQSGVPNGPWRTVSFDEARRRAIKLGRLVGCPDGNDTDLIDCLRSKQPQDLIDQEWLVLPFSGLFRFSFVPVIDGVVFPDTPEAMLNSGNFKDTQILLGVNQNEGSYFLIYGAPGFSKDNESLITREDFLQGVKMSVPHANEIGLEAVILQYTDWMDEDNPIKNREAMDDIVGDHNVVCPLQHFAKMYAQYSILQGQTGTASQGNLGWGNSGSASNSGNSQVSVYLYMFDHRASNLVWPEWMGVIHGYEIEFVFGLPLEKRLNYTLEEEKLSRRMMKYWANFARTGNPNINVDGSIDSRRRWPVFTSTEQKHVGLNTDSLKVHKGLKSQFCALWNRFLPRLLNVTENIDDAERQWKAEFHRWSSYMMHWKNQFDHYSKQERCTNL
T2 sequence (P05067 672-713): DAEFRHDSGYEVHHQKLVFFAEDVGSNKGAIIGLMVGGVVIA

Regarding `O=C(O)/C=C/C=C/c1ccc(O)c(O)c1` [(2E,4E)-5-(3,4-dihydroxyphenyl)penta-2,4-dienoic acid], the EC50 in data set [1] was 18.2 ± 0.2 µM.
Consider `CCN(C)C(=O)Oc1cccc(CNC(=O)C2(C)CCc3c(C)c(O)c(C)c(C)c3O2)c1` (stereo not drawn) [4BY2, 3-((6-Hydroxy-2,5,7,8-tetramethylchromane-2-carboxamido)methyl)phenyl ethyl(methyl)carbamate], for which the “% AA (radical-scavenging activity)” value in data set [2] stood at 93.9 ± 0.4%. Also, in data set [2] (read-out: AA EC50), the EC50 came to 20 ± 0.8 µM. In data set [3], the “SI (selectivity index)” value came out at 8.6 and the IC50 was 3.7 ± 0.1 µM. Moreover, the “rescue of cell viability after iron/ascorbate treatment” value in data set [4] is listed as “capable of rescuing the cell viability; also recorded: significantly improved cell viability”. For the same molecule, the inhibition at 40 µM on Aβ1–42 is 47 ± 3%. In addition, the highest nontoxic concentration in data set [5] is 1 µM. The IC50 in data set [6] was 32 ± 2 µM.
In the case of `O=C(O)C=Cc1ccc(O)c(O)c1` [caffeic acid, 3,4-dihydroxycinnamic acid], the concentration giving a half-maximal response (EC50) in data set [1] was 21.7 ± 0.2 µM.
In the case of `CCN(C)C(=O)Oc1cccc(NC(=O)/C=C/C=C/c2ccc3c(c2)OCO3)c1` [4AY4, 3-((2E,4E)-5-(Benzo[d][1,3]dioxol-5-yl)penta-2,4-dienamido)phenyl ethyl(methyl)carbamate], the “% AA (radical-scavenging activity)” value in data set [2] was below 50%. In addition, the “SI (selectivity index)” value in data set [3] came to 0.9. Also, the IC50 is 15.2 ± 0.4 µM in data set [3] and 14.51 ± 0.04 µM in data set [6]. The “rescue of cell viability after iron/ascorbate treatment” value in data set [4] is reported as “capable of rescuing the cell viability; also recorded: significantly improved cell viability”. Moreover, the inhibition at 20 µM at Aβ1–42 (24 h) is 23 ± 3%. Also, the highest nontoxic concentration was 1 µM in data set [5] (dose given for the Aβ1–42 experiments) and 2.5 µM in data set [5] (dose given for the iron/ascorbate experiments).
